Results on nine molecules are retold here after PMC12509328, “Human Internal Exposures of Bisphenol A and Six Data-Poor Analogs Predicted by Physiologically Based Kinetic Models with Multimodal Parametrization” (Environmental Science & Technology, 2025).

One series has as its system Human Liver S9. Description: Glucuronidation kinetics in human liver S9. To be noted: human liver S9 fractions; for Vmax hepatic glucuronidation / Km: GraphPad Prism fitting; for Ksi hepatic glucuronidation: substrate inhibition fit; for Km: read-out: Km hepatic glucuronidation. As to the method:
(§1) The glucuronidation kinetics of BPA, BPB, BPE, BPF, BPAF, and BPM were determined as described in the Supporting Information (Tables S6 and S7). Outliers were excluded using the Nalimov test.
(§2) Supplementary information on glucuronidation kinetics measurement
(§3) BPA, BPB, BPE and BPM were incubated with Corning® UltraPool™ Human Liver S9 in a buffer […]
(§4) containing UDPGA. […]
(§5) S9 protein). For each assay, an S9 aliquot was thawed on ice, and a reaction master mix was prepared with 0.1 mg S9 protein/mL in either 0.1 M (for BPA, BPB, BPAF, and BPF) or […] (for BPE and BPM) Tris-HCl, along with 10 mM UDPGA in 50 mM Tris-HCl (pH 7.4), 25 µg/mL alamethicin, and 10 mM magnesium chloride. Negative controls using 0.1 M Tris-HCl without UDPGA were included. Each reaction solution (100 µL) was pre-incubated for 5 min at 37° C with 350 rpm shaking. To this solution was added bisphenol solutions (0 to 20 mM) in DMSO in a ratio of 1:100 to achieve final bisphenol concentrations of 0 to 200 µM and 1% (v/v) […]
(§6) glucuronidation reaction was stopped by adding cold methanol (160 μL) and samples were kept at -20 °C for 1 h to precipitate proteins. The resulting mixture was centrifuged (10 min, 4 °C, 15,000 rcf). Supernatants were analyzed using High-performance liquid chromatography (HPLC) with diode array detector (DAD). […]
(§7) A gradient elution […]
(§8) was used with water containing 0.1% formic acid as eluent A and acetonitrile with 0.1% formic acid as eluent B. The initial condition of 15% eluent B was increased to 65% eluent B over 20 min, and then to 90% eluent B in the next 5 min. […]
(§9) and their glucuronides are provided in Supplementary Table S7. Calibration curves were set from concentrations ranging from 1 to 100 µM.

The nature of series [1]: Glucuronidation kinetics in human liver S9. Conditions: human. The protocol:
as §1, §2, §3, §4, §5, §6, §7, §8, §9

On the set-up of series [2]: method as in Thayer et al. To be noted: ref Thayer et al., cited from earlier work.
For series [3] the following is noted: blood; previous model, BPA; ref Karrer et al.; cited from earlier work.
Series [4] can be described thus: Present human PBK model, model evaluation (scenarios 3 and 4). To be noted: for predicted AUC, times higher than observed: present model vs Teeguarden et al. (BPA dosing); for predicted blood C max as percent of the observed value: present model vs Teeguarden et al.; for predicted blood C max as percent of the observed value / predicted blood C max, times higher than in vivo observed: average. The source says:
Several exposure scenarios were defined for parameter gathering, model evaluation, and internal exposure assessment (Table ). In scenarios 1 and 2, a rat PBK model was used to parametrize enterohepatic circulation (EHC) rates for application in human PBK models. […] Models were developed for four human physiologies: male (“man”) and female adults (“woman”), male “child”, and male “toddler” (Table S2). These models were selected based on available physiological data for key organs (thyroid, breasts, and testes), related to ED and the detected bisphenol exposure level. The repeated dose scheme from Karrer et al. was reproduced (scenarios 9 to 12) to model chronic exposure via three meals a day.
When not individually compartmentalized, organs were categorized as either slowly perfused tissues or rapidly perfused tissues and combined. Compartments related to the thyroid, testes, and breasts (depending on sex) were included in human but not rat models. Code was compiled in Berkeley Madonna 10 and Python (see Supporting Information and GitLab: https://gitlab.ethz.ch/eth_toxlab/pbk_model_bisphenol_analogs).
These PBK models were parametrized using a multimodal framework that integrates new approach methodology tools into a reproducible chemical-family wide workflow. This framework combines QSARs, in vitro experiments, and cross-species extrapolation to parametrize PBK models for a family of compounds, some of which were considered data-poor (Figure ). […] Organism-based parameters were tailored to account for species, sex, and age when possible (Figure and Table S2). − Parameters based on both the organism and chemical were partition coefficients, intestinal uptake, EHC rate, and glucuronidation kinetics (Figure ).
To address parameter uncertainty in concentrations that were predicted with human PBK models, 10,000 Monte Carlo (MC) simulations were performed. Each sensitive parameter was resampled according to probability distributions from the literature (Table S8). ,− To ensure physiological plausibility, EHC rates were constrained between 0 and 1, and the sum of all relative organ weights and the sum of all relative organ blood flows were kept constant. MC simulation outcomes were analyzed by comparing the first quartile, the median, and the third quartile values of concentrations per time point.

The conditions of series [5]: ref Yang et al.; cited from earlier work.
On the set-up of series [6]: method as in Teeguarden et al. Conditions: ref Teeguarden et al., cited from earlier work.
Series [7] relates to human small intestinal S9. Description: Glucuronidation in human small intestinal S9. In kind it is in vitro ADME. As to the method:
Supplementary information on glucuronidation kinetics measurement […]
µg/mL alamethicin, and 10 mM magnesium chloride. Negative controls using 0.1 M Tris-HCl […]
without UDPGA were included.
37° C with 350 rpm shaking. […]
at -20 °C for 1 h to precipitate proteins. The resulting mixture was centrifuged (10 min, 4 °C, 15,000 rcf). Supernatants were analyzed using High-performance liquid chromatography (HPLC) with diode array detector (DAD). Similar experiments were conducted for BPA, BPB, BPE, and […]
Bisphenol concentrations ranged
The retention times for the various bisphenols […]
as §9

Series [8] relates to rat liver S9 (Sprague-Dawley, male). Description: Glucuronidation kinetics in rat liver S9. As to the method:
as §1, §2
as §5, with “BPA, BPB, BPE and BPM were incubated with Corning® UltraPool™ Human Liver S9 in a buffer containing UDPGA. The S9 reagent (20 mg protein/mL) was aliquoted and stored at -80° C until use. BPAF and BPF were incubated similarly with rat liver S9 (Sprague-Dawley, male, 0.1 mg/mL S9 protein).” for “S9 protein).”
(§10) glucuronidation reaction was stopped by adding cold methanol (160 μL) and samples were kept at -20 °C for 1 h to precipitate proteins. The resulting mixture was centrifuged (10 min, 4 °C, 15,000 rcf). Supernatants were analyzed using High-performance liquid chromatography (HPLC) with diode array detector (DAD). Similar experiments were conducted for BPA, BPB, BPE, and BPM with human small intestinal S9 mix (0.025 to 0.25 mg/mL). Bisphenol concentrations ranged from 5 to 120 µM, and incubation times from 15 to 120 min. […]
(§11) series HPLC system with a Waters XBridge BEH130 C18 column (4.6 × 150 mm, 3.5 μm particle size) for separation and a DAD set to a detection wavelength of λ = 280 nm. A gradient elution was used with water containing 0.1% formic acid as eluent A and acetonitrile with 0.1% formic acid as eluent B. The initial condition of 15% eluent B was increased to 65% eluent B over 20 min, and then to 90% eluent B in the next 5 min. […]
as §9

Details of series [9]: method as in Oh et al. Conditions: blood, in vivo, 4 men and 3 women, ref Oh et al., cited from earlier work; for Cmax: 8.75 μg/kg bw d4-BPS in a chocolate cookie; for AUC / t max: 8.75 μg/kg bw d4-BPS.
Series [10] in a line: Glucuronidation kinetics in rat liver S9. To be noted: male, Sprague-Dawley, rat, rat liver S9, pH 7.4. As to the method:
as §1, §2
as §5, with “BPA, BPB, BPE and BPM were incubated with Corning® UltraPool™ Human Liver S9 in a buffer containing UDPGA. The S9 reagent (20 mg protein/mL) was aliquoted and stored at -80° C until use. BPAF and BPF were incubated similarly with rat liver S9 (Sprague-Dawley, male, 0.1 mg/mL S9 protein).” for “S9 protein).”
as §10, §11, §9

On the set-up of series [11]: method as in Oh et al. Conditions: blood; previous model, BPS; ref Oh et al.; cited from earlier work.
Where [12] appears, read: blood, in vivo, 10 men, 30 μg/kg bw d6-BPA in soup.
Where [13] appears, read: rat liver S9 fractions, GraphPad Prism fitting.
Where [14] appears, read: present model vs Oh et al. (BPS dosing).

Where two headings read alike, the source gives them in different places. Marks after values point to notes of the source that are not given here.

Take `CC(C)(c1ccc(O)cc1)c1ccc(O)cc1` [BPA, bisphenol A]: the Vmax hepatic glucuronidation in the series with Human Liver S9 was 4.06 nmol/min/mg. Moreover, the Km (as a rule, the concentration of substrate that gives half-maximal velocity) in series [1] (pH 7.4) was 13.1 µM. The urinary excretion in series [2] (at 24 h, range 92–100%) was 98%. The cumulative urinary excretion in series [2] (by 48 h) was 80–110%. The “urinary fraction of unconjugated BPA” value in series [2] is reported as 0.029%. In series [2] (within 12 h post exposure, range 86–98%), the “total BPA excreted” value is reported as 94%. For the same molecule, in series [3], the AUC is reported as 4.15 (2.91–5.15) ^c nM x day, the Cmax (usually the highest concentration seen after dosing) is 1.31 nM and the t max was 0.72 (0.67–0.77) ^c h. Besides, in series [4], the “predicted AUC, times higher than observed” value is “about 1.5 times” and the “predicted blood C max as percent of the observed value” was 63%. Besides, the “glucuronidated BPA undergoing EHC” value in series [5] is given as “ten”. Moreover, in [6] (at 24 h, range 90–116%), the urinary excretion was 104%. For the same molecule, the AUC in series [6] (setting [12]) is 2.5 (1.4–5.7) ^a nM x day. Also, in series [6], the “urinary fraction of unconjugated BPA” value was 0.03%. For the same molecule, the “glucuronidation rates in small intestinal S9 fractions” value in series [7] is listed as “negligible”.
As for `CC(C)(c1ccc(O)cc1)c1cccc(C(C)(C)c2ccc(O)cc2)c1` [BPM, Bisphenol M], in the series on Human Liver S9, the Vmax hepatic glucuronidation stood at 4.89 nmol/min/mg, the Ksi hepatic glucuronidation turned out to be 51.75 µM and the Michaelis constant (Km) turned out to be 20.2 µM. Besides, the “glucuronidation rates in small intestinal S9 fractions” value in [7] is recorded as “negligible”.
In the case of `Oc1ccc(Cc2ccc(O)cc2)cc1` [BPF, Bisphenol F], the Vmax hepatic glucuronidation in series [8] (setting [13]) was found to be 1.17 nmol/min/mg; in [8] (rat model code), 1.173 nmol/min/mg. For the same molecule, the Km in series [8] (read-out: Km hepatic glucuronidation, rat liver S9 fractions, GraphPad Prism fitting) stood at 47.5 µM.
With `O=C(O)[C@H]1O[C@@H](Oc2ccc(S(=O)(=O)c3ccc(O)cc3)cc2)[C@H](O)[C@@H](O)[C@@H]1O` [BPS glucuronide], in series [9], the Cmax is 10.5 nM, the AUC was 78.7 (54–103) ^d nM x day and the t max is recorded as 1.0 (1.0–1.0) ^d h. Also, in series [4] (setting [14]), the “mean predicted AUC, times higher than in vivo” value is on record as “about 2.4 times” and the “predicted blood C max, times higher than in vivo observed” value is on record as 2.8 times.
For `CC(c1ccc(O)cc1)c1ccc(O)cc1` [BPE, Bisphenol E], in the series with Human Liver S9, the Vmax hepatic glucuronidation turned out to be 3.42 nmol/min/mg, the Ksi hepatic glucuronidation is recorded as 280.6 µM and the Km came to 51.3 µM. Also, the “glucuronidation rates in small intestinal S9 fractions” value in [7] was “negligible”.
In the case of `CCC(C)(c1ccc(O)cc1)c1ccc(O)cc1` [BPB, Bisphenol B], in the series with Human Liver S9, the Vmax hepatic glucuronidation came out at 5.81 nmol/min/mg and the Ksi hepatic glucuronidation is 21.48 µM. Moreover, in series [1] (human liver S9, pH 7.4), the Km came out at 12.3 µM. In addition, in series [7], the “glucuronidation rates in small intestinal S9 fractions” value is on record as “negligible”.
In the case of `Oc1ccc(C(c2ccc(O)cc2)(C(F)(F)F)C(F)(F)F)cc1` [BPAF, Bisphenol AF], the Vmax hepatic glucuronidation in series [8] (setting [13]) came out at 7.10 nmol/min/mg. The Ksi hepatic glucuronidation in series [8] (rat liver S9 fractions, substrate inhibition fit) is listed as 27.63 µM. Also, in [10], the Km amounted to 49.7 µM.
For `CC(C)(c1ccc(O)cc1)c1ccc(O[C@@H]2O[C@H](C(=O)O)[C@@H](O)[C@H](O)[C@H]2O)cc1` [BPA glucuronide], in series [3], the Cmax was 610 nM and the t max was 0.94 (0.93–0.97) ^c h. In addition, in series [4], the “predicted AUC, times higher than observed” value was “about 1.5 times” and the “predicted blood C max as percent of the observed value” is 80%. Also, the Cmax in [6] (blood, in vivo, 10 men, 30 μg/kg bw d6-BPA in 355 mL of soup, (range)) was 286 nM. Also, in series [6] (setting [12]), the AUC is recorded as 680 (571–1′210) ^a nM x day and the t max is reported as 1.2 (0.8–2.2) ^a h.
For the molecule `O=S(=O)(c1ccc(O)cc1)c1ccc(O)cc1` [BPS, Bisphenol S], in [9], the Cmax is 8.79 nM; the AUC is reported as 40 − , ^d nM x day; the t max is reported as 0.5 (0.25–0.5) ^d h. Further, in series [11], the AUC is given as 39.8 − ^, ^e nM x day; the maximum concentration (Cmax) is 10.1 nM; the t max is 0.57 (0.26–0.88) ^e h. In [4] (setting [14]), the “delay of average predicted t max vs measure” value is on record as 1.7 h and the “predicted blood C max, times higher than in vivo observed” value is listed as 1.6 times.
